Experimental data reported in US6342483B1, “Method for detection and treatment of breast cancer” (Vanderbilt University, priority 1994, dated 2002).

Columns and labels:
[1] = test system: human primary mammary epithelial cells; assay: Growth rate of primary mammary epithelial cells incubated with antisense or sense oligonucleotide; assay type: cell-based
Excerpt: (§1) Unmodified 18 base deoxyribonucleotide complementary to the BRCA1 translation initiation site were synthesized and added to cultures of primary mammary epithelial cells (Stampfer et al. 1980) or MCF-7 breast cancer cells (Soule and McGrath, 1980). FIG. 12 is graph showing growth rate of human primary mammary epithelial cells (A), MCF-7 cells (B), retinal pigmented epithelial cells (C), cultured as described below. Points and bars represent the mean and the 95% confidence interval of triplicate counts of cells incubated with a single bolus of the indicated concentration of antisense or control sense deoxyribonucleotide.
Antisense oligonucleotide studies. Unmodified deoxyribonucleotide were analyzed by gel electrophoresis and UV shadowing and shown to be homogenous and of appropriate size. These oligonucleotide were purified by multiple lyophilization and solubilized in buffered media as described (Holt et al. 1988). Sequence of the unmodified antiBRCA1 oligonucleotide 5′AAG AGC AGA TAA ATC CAT 3′(SEQ ID NO: 52) and the complementary sense oligonucleotide 5′ATG GAT TTA TCT GCT CTT 3′ (SEQ ID NO:53) correspond to the presumed translation initiation site at bases […] of the GenBank sequence. The antisense oligonucleotide sequence was searched against GenBank and no significant homologies were identified to genes except BRCA1. Oligonucleotides were used according to our published methods (Holt et al. 1988). Primary mammary epithelial cells were cultured in serum-free medium supplemented with epidermal growth factor, insulin, hydrocortisone, ethanolamine, phosphorylethanolamine, and bovine pituitary extract. MCF-7 cells were cultured in Minimum Essential Medium Eagle (Modified) with Earle's salts and 2g/L sodium bicarbonate m supplemented with 2 mM L-glutamine, GMS-A (Gibco Cat. #680-1300AD), nonessential amino acids, and 2.5% fetal calf serum. Retinal pigmented perithelial cells were cultured in DMEM and 10% calf serum.

MCF-7 cells = assay: Nuclear labelling with tritiated thymidine in synchronized MCF-7 cells; assay type: cell-based, human; details: tamoxifen 48 hours, then 1 uM estradiol
Excerpt: (§2) In order to critically evaluate the function of BRCA1 gene inhibition on growth stimulation and cell cycle progression it was necessary to identify a gene whose expression is cell cycle regulated in human mammary cells. […] Because ribonucleotide reductase constitutes the rate limiting step in DNA synthesis, we reasoned that it might be cell cycle regulated in a synchronous growth model such as MCF-7 cells which can be growth arrested by tamoxifen and then restimulated by estrogen (Aitken et al. 1985, Arteaga et al. 1989). MCF-7 cells were growth arrested by tamoxifen for 48 hours and then stimulated at time zero (0) with 1 uM estradiol (+E) or control vehicle (−E).

[2] = test system: ribonucleotide reductase M2 gene; assay: Northern blot and nuclear run on of ribonucleotide reductase M2 in synchronized MCF-7 cells; assay type: cell-based, human; details: tamoxifen 48 hours, then 1 uM estradiol
Excerpt: as §2
FIG. 13A is a Northern blot of mRNA from synchronized MCF-7 cells. At the indicated time in hours, total cellular RNA was isolated and Northern blotting performed using the 1.6 Kb Eco RI fragment from our cloned human ribonucleotide reductase cDNA described above. Two mRNA species of 1.6 and 3.4 Kb are observed in these studies.
Con represents cells which were grown for 48 hours but not treated with tamoxifen.

[3] = test system: MCF-7 breast cancer cells; assay: Growth rate of MCF-7 cells incubated with antisense or sense oligonucleotide; assay type: cell-based, human; details: 40 uM oligonucleotide, single bolus, FIG. 12B
Excerpt: as §1
(§3) Antisense oligonucleotide studies. Unmodified deoxyribonucleotide were analyzed by gel electrophoresis and UV shadowing and shown to be homogenous and of appropriate size. These oligonucleotide were purified by multiple lyophilization and solubilized in buffered media as described (Holt et al. 1988). Sequence of the unmodified antiBRCA1 oligonucleotide 5′AAG AGC AGA TAA ATC CAT 3′(SEQ ID NO: 52) and the complementary sense oligonucleotide 5′ATG GAT TTA TCT GCT CTT 3′ (SEQ ID NO:53) correspond to the presumed translation initiation site at bases 12-137 of the GenBank sequence. The antisense oligonucleotide sequence was searched against GenBank and no significant homologies were identified to genes except BRCA1. […]

[4] = test system: human retinal pigmented epithelial cells; assay: Growth rate of retinal pigmented epithelial cells incubated with antisense or sense oligonucleotide; assay type: cell-based; details: 40 uM oligonucleotide, single bolus; FIG. 12C
Excerpt: as §1, §3

BRCA1 mRNA = assay: Nuclease protection assay of BRCA1 mRNA after antisense treatment; assay type: cell-based, human; details: compared with cells treated with sense control oligonucleotide; 40 uM, 4 days; lanes 9 and 10 FIG. 14 (primary mammary epithelial cells)
Experimental: (§4) Antisense inhibition is a useful strategy for studying gene expression which is dependent on expression of the antisense target gene (Robinson-Benion and Holt, in press, 1995), e.g. genes whose expression is directly or indirectly dependent on BRCA1 levels. […] A nuclease protection assay of mRNA derived from primary mammary epithelial cells (lanes 1-4, 9-10) or MCF-7 cells Oanes 5-8, 11-12) cultured for 4 days with antisense or control oligonucleotide was performed under the following conditions: no oligonucleotide (lanes 1 and 5); 40 uM antiBRCA1 (lanes 2,6,10,12); 4 uM antiBRCA1 (lanes 3 and 7); 40 uM sense control (lanes 4,8,9,11). Probes for BRCA1 and GAPD are as described for FIG. 10, and the ribonucleotide reductase M2 probe (RR) detects the 200 bp probe is described above.
(§5) Nuclease Protection Assays. PCR primers were derived from BRCA1 sequence in GenBank (Accession number U14680); forward 5′CAA TTG GGC AGA TGT GT 3′ (SEQ ID NO:50) and reverse 5′CTGGGGGATCTGGGGTATCA 3′ (SEQ ID NO:51) which amplify a 113 bp region from exon 24, corresponding to bases 5587 to 5699 of the human BRCA1. This region was selected because this exon has not been reported to be differentially spliced unlike more 5′ exons. […]
(§6) Antisense oligonucleotide studies. Unmodified deoxyribonucleotide were analyzed by gel electrophoresis and UV shadowing and shown to be homogenous and of appropriate size. […]

[5] = test system: ribonucleotide reductase M2 mRNA; assay: Nuclease protection assay of ribonucleotide reductase M2 mRNA after antisense treatment, primary mammary epithelial cells; assay type: cell-based, human; details: 40 uM, cultured 4 days
Experimental: as §4, §5, §6

[6] = test system: ribonucleotide reductase M2 mRNA; assay: Nuclease protection assay of ribonucleotide reductase M2 mRNA after antisense treatment, MCF-7 cells; assay type: cell-based, human; details: 40 uM, cultured 4 days
Experimental: as §4, §5, §6

Which results are given for “sense oligomer: Complementary sense control oligonucleotide with the same GC content, 5′ATG GAT TTA TCT GCT CTT 3′ (SEQ ID NO:53) (sense ATGGATTTATCTGCTCTT; further chemistry not given here) [reference compound]”?
growth activation by anti-BRCA1 oligomer ([1]; 10 fold excess of sense oligomer added to the anti-BRCA1 oligomer, cell line not specified): reversed the growth activation; proliferation rate ([1]; control oligomer with the same GC content, cell line not specified): did not increase the proliferation rate

For `C[C@]12CC[C@@H]3c4ccc(O)cc4CC[C@H]3[C@@H]1CC[C@@H]2O` [estrogen, estradiol], which DNA synthesis (MCF-7 cells) is on record?
Its DNA synthesis is “induction of synthesis”.

What about the “transcription of the ribonucleotide reductase M2 gene” value [2] of the same compound?
The value was “induced”.

For `CC/C(=C(\c1ccccc1)c1ccc(OCCN(C)C)cc1)c1ccccc1` [tamoxifen], which DNA synthesis (MCF-7 cells) is on record?
The DNA synthesis was “Inhibition of DNA synthesis”.

And the “transcription of the ribonucleotide reductase M2 gene” value [2]?
The value was “inhibited”.

How did the “growth of normal mammary cells” value ([1]; 40 uM oligonucleotide, single bolus, FIG. 12A) turn out when “anti-BRCA1 oligonucleotide: Unmodified 18 base deoxyribonucleotide complementary to the BRCA1 translation initiation site, 5′AAG AGC AGA TAA ATC CAT 3′ (SEQ ID NO: 52) (antisense AAGAGCAGATAAATCCAT; unmodified DNA)” was run?
The value was “accelerated growth”.

And the “morphologic appearance of the cell lines” value ([1]; addition of antisense oligonucleotide)?
The value was “not noticeably changed”.

What about the “proliferative rate of the cell lines” value ([1]; addition of antisense oligonucleotide, dose not stated) of the same compound?
Its value is “faster”.

What about the cell growth rate ([1]; intermediate dose, cell line not given) of the same compound?
Its cell growth rate is “less pronounced but significant increase”.

What about the “growth of malignant mammary cells” value [3] of the same compound?
The value was “accelerated growth”.

What about the “growth of human retinal pigmented epithelial cells” value [4] of the same compound?
Its value is “did not affect the growth”.

What about the “inhibition of BRCA1 mRNA levels” value (BRCA1 mRNA) of the same compound?
The value was 70-90%.

And the “ribonucleotide reductase mRNA levels” value [5]?
The value was “highest”.

And the “ribonucleotide reductase mRNA levels” value [6]?
The value was “highest”.
